Data reported in ChEMBL document CHEMBL1938310, “Discovery of novel antitubercular 1,5-dimethyl-2-phenyl-4-([5-(arylamino)-1,3,4-oxadiazol-2-yl]methylamino)-1,2-dihydro-3H-pyrazol-3-one analogues” (Bioorg Med Chem Lett, 2012).
In brackets after ≈: the same amount, converted by molar mass.

Each molecule was assayed on Mycobacterium tuberculosis (assay: Antimycobacterial activity against isoniazid-resistant Mycobacterium tuberculosis by two fold agar dilution method).
Assay type: functional
In the case of Cc1c(NCc2nnc(Nc3ccc(F)c(Cl)c3)o2)c(=O)n(-c2ccccc2)n1C, the MIC is reported as 10 µg/mL (≈ 23.3 µM). Molecule Cc1c(NCc2nnc(Nc3ccc(F)cc3)o2)c(=O)n(-c2ccccc2)n1C has an MIC of 3.12 µg/mL (≈ 7.91 µM). Cc1c(NCc2nnc(Nc3ccc(Cl)cc3)o2)c(=O)n(-c2ccccc2)n1C gave an MIC of 10 µg/mL (≈ 24.3 µM). With Cc1c(NCc2nnc(Nc3ccc(Br)cc3)o2)c(=O)n(-c2ccccc2)n1C the MIC was 12.5 µg/mL (≈ 27.5 µM). Molecule Cc1c(NCc2nnc(Nc3ccccc3Cl)o2)c(=O)n(-c2ccccc2)n1C has an MIC greater than 12.5 µg/mL. Cc1c(Cl)cccc1Nc1nnc(CNc2c(C)n(C)n(-c3ccccc3)c2=O)o1 was tested, and the MIC was greater than 12.5 µg/mL. Work on Cc1c(NCc2nnc(Nc3ccc([N+](=O)[O-])cc3)o2)c(=O)n(-c2ccccc2)n1C yielded an MIC of 6.25 µg/mL (≈ 14.8 µM). Cc1ccc(Nc2nnc(CNc3c(C)n(C)n(-c4ccccc4)c3=O)o2)cc1 gave an MIC greater than 12.5 µg/mL. COc1ccc(Nc2nnc(CNc3c(C)n(C)n(-c4ccccc4)c3=O)o2)cc1 was tested, and the MIC was greater than 12.5 µg/mL. Work on Cc1ccc(Nc2nnc(CNc3c(C)n(C)n(-c4ccccc4)c3=O)o2)c(C)c1 yielded an MIC greater than 12.5 µg/mL. Cc1cccc(C)c1Nc1nnc(CNc2c(C)n(C)n(-c3ccccc3)c2=O)o1 was tested, and the MIC was greater than 12.5 µg/mL. With Cc1c(NCc2nnc(Nc3ccc(O)cc3)o2)c(=O)n(-c2ccccc2)n1C the MIC was 12.5 µg/mL (≈ 31.9 µM). With Cc1c(NCc2nnc(Nc3ccc(S(N)(=O)=O)cc3)o2)c(=O)n(-c2ccccc2)n1C the MIC was 12.5 µg/mL (≈ 27.4 µM). For Cc1c(NCc2nnc(Nc3ccccc3)o2)c(=O)n(-c2ccccc2)n1C, the MIC was greater than 12.5 µg/mL. NNC(=O)c1ccncc1 [ISONIAZID] showed an MIC of 12.5 µg/mL (≈ 91.1 µM).

Each molecule was assayed on Mycobacterium tuberculosis (assay: Ratio of MIC for isoniazid-resistant Mycobacterium tuberculosis to MIC for Mycobacterium tuberculosis H37Rv).
Assay type: functional
Cc1c(NCc2nnc(Nc3ccc(F)cc3)o2)c(=O)n(-c2ccccc2)n1C showed a Ratio of 4.
